Test results reported in patent US20070071792A1, “In VIVO formed matrices including natural biodegradale polysaccharides and ophthalmic uses thereof” (priority 2005, published 2007).
One block for each compound: values may come before it.

Assays:
PC-12 cells = assay: Cell viability within polyalditol-acrylate redox components (Live/Dead Viability/Cytotoxicity Kit); conditions: 15 min
Method: Cell suspensions were prepared as follows: PC-12 cells (ATCC; passage 5; 75% confluency) were harvested from a T-75 flask using Trypsin-EDTA for 2 minutes. The cells were placed in a 15 mL polyethylene conical (VWR) and centrifuged in F-12k media without serum for 4 minutes at 500 rpm. The cells were counted using a hemocytometer, centrifuged for 4 minutes at 500 rpm, and resuspended at 600,000 cells/mL in sterile PBS.
In order to determine the effect of individual components of the matrix forming compositions on cell viability, solutions A-G were independently mixed with PC-12 cells. 50 uL of cell suspension was added to 350 uL of solutions A-G (Table 7). After a 15 minute incubation, cell viability was assessed using a Live/Dead™ Viability/Cytotoxicity Kit (cat.# L3224; Molecular Probes, Eugene, Oreg.).
The effect of a formed matrix on cell viability was also tested. To form the PD-A matrix, solution #1 (200 mg PD-A, 10 uL TEMED, 20 uL 1N HCl, 470 uL PBS) was added in the amount of 200 uL to a 1.6 ml eppendorf (VWR). Solution #2 (400 mg PD-A, 10 mg Potassium persulfate, 75K PC-12 cells, 500 uL PBS) was added in the amount of 200 uL to solution #1 in the eppendorf and mixed for 10 seconds. After a 15 minute incubation, cell viability was assessed using the Live/Dead™ Viability/Cytotoxicity Kit.

Structure (SMILES): O=S(=O)([O-])OOS(=O)(=O)[O-].[K+].[K+] [Potassium persulfate]
- Cell viability (%) (PC-12 cells; 10 mg/ml in PBS): 90%

- melting point: 160 to 165 °C
Structure (SMILES): O=C(O)/C=C\C(=O)NCCCCCC(=O)O

Structure (SMILES): O=S(=O)([O-])OOS(=O)(=O)[O-].[Na+].[Na+] [Sodium persulfate]
- Cell viability (%) (PC-12 cells; 5 mg/ml in PBS): 90%

Structure (SMILES): N.N.O=S(=O)(O)OOS(=O)(=O)O [Ammonium persulfate]
- Cell viability (%) (PC-12 cells; 10 mg/ml in PBS): 90%
- Cell viability (%) (PC-12 cells; 120 mg/ml in PBS): 90%
